Measurements: PubChem BioAssay (NCI)
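96-well plates; 48 h exposure; 5 concentrations. Endpoints by linear interpolation between flanking doses. Not reached: highest tested concentration assigned. TGI: total growth inhibition.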

Assays:
Assay in all cases: DTP human tumour cell line panel, 48 h
[1] = tested on: K-562 leukemia
[2] = tested on: ACHN renal
[3] = tested on: SR leukemia
[4] = tested on: LOX IMVI melanoma
[5] = tested on: SNB-19 CNS
[6] = tested on: OVCAR-4 ovarian
[7] = tested on: SK-MEL-2 melanoma
[8] = tested on: CAKI-1 renal
[9] = tested on: KM12 colon
[10] = tested on: HT29 colon
[11] = tested on: SK-MEL-28 melanoma
[12] = tested on: MOLT-4 leukemia
[13] = tested on: SW-620 colon
[14] = tested on: M14 melanoma
[15] = tested on: MCF7 breast
[16] = tested on: A549 NSCLC

| SMILES | TGI [1] | TGI [2] | TGI [3] | TGI [4] | TGI [5] | TGI [6] | TGI [7] | TGI [8] | TGI [9] | TGI [10] | TGI [11] | TGI [12] | TGI [13] | TGI [14] | TGI [15] | TGI [16] |
| --- | --- | --- | --- | --- | --- | --- | --- | --- | --- | --- | --- | --- | --- | --- | --- | --- |
| COc1cc(C2SCC(=O)N2c2cc(Cl)c(Cl)cc2Cl)cc(OC)c1OC (centres undefined) | > 100 µM | > 100 µM | 84.3 µM | > 100 µM | > 100 µM | > 100 µM | > 100 µM | > 100 µM | > 100 µM | > 100 µM | > 100 µM | > 100 µM | > 100 µM | > 100 µM | > 100 µM | > 100 µM |
| COc1ccc(/C=C2\CCCC(CN(C)C)C2=O)cc1 (centres undefined) | 6.79 µM | 5.86 µM | 2.42 µM | 4 µM | 18 µM | 4.43 µM | 11 µM | 3.15 µM | 2.75 µM | 3.47 µM | 3.77 µM | 2.56 µM | 2.39 µM | 4.21 µM | 1.45 µM | 33.9 µM |
| CO/N=C(\C)c1ccc(Nc2c3ccccc3nc3occc23)cc1 | 37.3 µM | 35.2 µM | 21.9 µM | 18.2 µM | 45.1 µM | 7.58 µM | 1.94 µM | 7.15 µM | 12.5 µM | 2.16 µM | 8.62 µM | 33.5 µM | 18.9 µM | 9.59 µM | 1.59 µM | 20 µM |
| O=P1(C(O)/C=C/c2ccccc2)N(Cc2ccccc2)[C@H](c2ccccc2)[C@@H](c2ccccc2)N1Cc1ccccc1 (some centres undefined) | > 80.6 µM | > 95.4 µM | 70.7 µM | > 72.5 µM | > 100 µM | > 100 µM | 41.5 µM | 99.7 µM | > 100 µM | > 86.3 µM | > 100 µM | > 100 µM | > 100 µM | > 100 µM | > 100 µM | > 100 µM |
| Cc1c(C#N)c2nnn(-c3ccc(Cl)cc3)c(=O)n2c1-c1ccccc1 | 20.1 µM | 83.4 µM | > 56.6 µM | 12.9 µM | > 40.5 µM | > 59.3 µM | 2.99 µM | > 52.3 µM | 11.6 µM | 0.49 µM | > 51.7 µM | 42.3 µM | 31.4 µM | 14 µM | 19.5 µM | > 40.3 µM |
| COc1ccccc1/C=C/C1=NN(c2cccc(S(=O)(=O)O)c2)C2(C1)SCC(=O)N2c1nc2ccccc2s1 (centres undefined) | > 100 µM | > 100 µM | 87.9 µM | > 100 µM | > 100 µM | > 100 µM | > 100 µM | > 100 µM | > 100 µM | > 100 µM | > 100 µM | > 100 µM | > 100 µM | > 100 µM | > 100 µM | > 100 µM |
| O=S(=O)(O)c1c(Cl)cc(O)c2ncccc12 | > 100 µM | > 100 µM | > 100 µM | > 100 µM | > 100 µM | > 100 µM | > 100 µM | > 100 µM | > 100 µM | > 100 µM | > 100 µM | > 100 µM | > 100 µM | > 100 µM | > 100 µM | > 100 µM |
| Brc1ccc2[nH]cc(-c3csc(-c4ccccn4)n3)c2c1 | > 100 µM | 23.7 µM | 43.6 µM | 33.2 µM | > 100 µM | > 92.8 µM | > 100 µM | > 94.9 µM | > 100 µM | 38.7 µM | > 100 µM | > 53.6 µM | 98.6 µM | > 100 µM | > 100 µM | > 70.3 µM |
| O=c1sc2c(s1)SSSSS2 | > 50 µM | > 50 µM | > 50 µM | > 50 µM | > 50 µM | > 50 µM | > 50 µM | > 50 µM | > 50 µM | > 50 µM | > 50 µM | 42.3 µM | > 50 µM | > 50 µM | > 50 µM | > 50 µM |
| C=CCN1CCC(OC(=O)C(O)(C#CC)C2CCCC2)CC1 (centres undefined) | > 100 µM | > 100 µM | > 100 µM | > 100 µM | > 100 µM | > 100 µM | > 100 µM | > 100 µM | > 100 µM | > 100 µM | > 100 µM | > 100 µM | > 100 µM | > 100 µM | > 100 µM | > 100 µM |
| O=c1cc(NCCCCCO)[nH]c(=O)[nH]1 | > 100 µM | > 100 µM | > 100 µM | > 100 µM | > 100 µM | > 100 µM | > 100 µM | > 100 µM | > 100 µM | > 100 µM | > 100 µM | > 100 µM | > 100 µM | > 100 µM | > 100 µM | > 100 µM |
| O=C(O)c1ccccc1NC(c1ccccc1)c1ccc2cccnc2c1O (centres undefined) | 53.3 µM | > 100 µM | > 46.8 µM | 43.2 µM | > 100 µM | 34.6 µM | > 100 µM | 50.1 µM | > 100 µM | > 100 µM | 44.2 µM | 34 µM | 46.4 µM | 38.8 µM | > 62.4 µM | > 100 µM |
| COc1cc(-c2cn(S(=O)(=O)c3ccc(C)cc3)c3ccccc23)nc(-c2cn(S(=O)(=O)c3ccc(C)cc3)c3ccccc23)n1 | > 100 µM | > 100 µM | > 100 µM | > 100 µM | 32.1 µM | > 100 µM | > 100 µM | > 100 µM | 8.44 µM | 2 µM | > 55.7 µM | > 22.5 µM | > 56.9 µM | 17 µM | > 100 µM | > 48.8 µM |
| Nc1sc2c(c1C(=O)c1ccc(Cl)c(Cl)c1)CCCC2 | > 100 µM | > 100 µM | > 100 µM | > 100 µM | > 100 µM | > 100 µM | 44.1 µM | > 100 µM | > 100 µM | > 100 µM | > 100 µM | > 100 µM | > 100 µM | > 100 µM | 64.8 µM | > 100 µM |
| Cc1ccc(-c2nc(C)c(C(=O)Nc3ccc(Cl)cc3)s2)cc1 | > 100 µM | 42 µM | > 100 µM | > 100 µM | 43.2 µM | 49.2 µM | > 100 µM | 40.8 µM | > 100 µM | > 100 µM | > 100 µM | > 100 µM | > 100 µM | > 100 µM | > 100 µM | > 100 µM |
| N#Cc1c(N2CCCC2)nsc1NCc1ccccc1 | > 100 µM | > 100 µM | > 100 µM | > 100 µM | > 100 µM | > 100 µM | > 100 µM | > 100 µM | > 100 µM | > 100 µM | > 100 µM | > 100 µM | > 100 µM | > 100 µM | > 100 µM | > 100 µM |
| NNC(=O)CSc1nc2ccc(I)cc2c(=O)n1Cc1ccccc1 | 88 µM | 40.2 µM | 61.2 µM | > 100 µM | 54.8 µM | 71.2 µM | 46 µM | 40.2 µM | 58.7 µM | 44.8 µM | 80.5 µM | 45.3 µM | > 100 µM | 40.4 µM | 59.4 µM | 54.6 µM |
| O=C1c2c(Cl)c(Cl)c(Cl)c(Cl)c2C(=O)N1CCN(c1c(Cl)ssc1=O)c1c(Cl)ssc1=O | 53.4 µM | 32.9 µM | 44.7 µM | 48.5 µM | > 100 µM | 40.2 µM | 54.3 µM | 34.7 µM | > 100 µM | 35.6 µM | > 100 µM | 37.7 µM | 61.9 µM | 46.2 µM | 44.8 µM | > 100 µM |
| CCC(C#N)(c1ccccc1)N(CCc1ccccc1)C(=O)c1ccccc1 (centres undefined) | > 100 µM | > 100 µM | > 100 µM | > 100 µM | > 100 µM | 44 µM | > 100 µM | > 100 µM | > 100 µM | > 100 µM | > 100 µM | > 100 µM | > 100 µM | > 100 µM | > 100 µM | > 100 µM |
